Target: MtmOIV (Streptomyces argillaceus, UniProt Q194P4)
Assay: X-ray crystal structure, […] Å
Assay type: binding
Conditions: non-covalently bound, IN conformation

Question: `Cc1cc2nc3c(=O)[nH]c(=O)nc-3n(C[C@H](O)[C@H](O)[C@H](O)COP(=O)(O)OP(=O)(O)OC[C@H]3O[C@@H](n4cnc5c(N)ncnc54)[C@H](O)[C@@H]3O)c2cc1C` [FAD] was tested. Which “X-ray crystal structure, 2.9 Å” value did it give?
Answer: The FAD cofactor was found non-covalently bound in the crystal structure

Source: paper PMC2713373 (Biochemistry, 2009)
